Data from patent publication US7850994B1, “Xerogel films for the controlled release of pharmaceutically active molecules” (The Trustees of the University of Pennsylvania, priority 2005, dated 2010).
“And” between values parts separate entries of the source, which are not always exact repeats. Equal entries are not always repeated.

Key:
Staphylococcus aureus = conditions: against Staphylococcus aureus; cited from earlier work
[1] = Stability / precipitation of vancomycin in sols; assay type: physicochemical; conditions: water-free sol prepared as described by Böttcher et al
Description: Vancomycin is a water-soluble drug. Sols with nominal vancomycin (Vancomycin-HCL, NovaPlus) concentrations of 5, 10, and 20% by weight were made by adding corresponding amounts of vancomycin dissolved in DI water to the sol. Although sols with various vancomycin concentrations were stable for several days, only freshly prepared mixtures were used for the application of the coatings.
Modification of the process of sol preparation was required to avoid the precipitation. It was achieved by adding water at the TEOS hydrolysis step. […] The sols with vancomycin concentrations varying from 3 to 30% by weight were stable over several days. The sols of modified compositions were successfully used for depositing vancomycin-loaded thin xerogel films to a Ti alloy substrate.

## CN[C@H](CC(C)C)C(=O)N[C@H]1C(=O)N[C@@H](CC(N)=O)C(=O)N[C@H]2C(=O)N[C@H]3C(=O)N[C@H](C(=O)N[C@H](C(=O)O)c4cc(O)cc(O)c4-c4cc3ccc4O)[C@H](O)c3ccc(c(Cl)c3)Oc3cc2cc(c3O[C@@H]2O[C@H](CO)[C@@H](O)[C@H](O)[C@H]2O[C@H]2C[C@](C)(N)[C@H](O)[C@H](C)O2)Oc2ccc(cc2Cl)[C@H]1O [vancomycin]
Staphylococcus aureus
  Minimal Inhibitory Concentration (MIC): 1.5 to 3 mg/L and 1.5 to 3.12 mg/L
[1]
  precipitation on adding a water solution of vancomycin to a sol: immediate precipitation of the drug in the sol
